Test results reported in US20030138946A1.

Columns and labels:
Format in all cases: cell-based, mouse
[1] = system: CD8^+ 2C lymph node cells; assay: Primary proliferative response of CD8+ 2C lymph node cells to peptides presented by transfected fly cells (3HTdR); conditions: peptide 10 μM
Protocol: Using a standard tissue culture system (Cai, Z. and Sprent, J. (1994) J. Exp. Med. 179: 2005-2015), doses of 5×10^4 purified CD8^+ 2C lymph node (LN) cells were cultured at 37° C. with doses of 3×10^5 transfected fly cells ±peptides (10 μM final concentration). Peptides were synthesized by R. W. Johnson Pharmaceutical Research Institute (Sykulev, et al. (1994) Immunity 1: 15-22. Proliferative responses were measured by adding ^3HTdR (1 μCi/well) 8 hours prior to harvest. IL-2 production was measured by removing supernatants from the cultures at 48 hours and adding 50 μl supernatant to an IL-2 responsive indicator cell line (CTLL); proliferation of the indicator line was measured by addition of ^3HTdR. The data shown in Table 2 are the means of triplicate cultures. The transfected Drosophila S2 cells die rapidly at 37° C. and fail to incorporate ^3HTdR at this temperature.

2C+ T-cells [2] = assay: Rosetting of 2C+ T-cells with L^d-bearing supports plus peptide; conditions: peptide 0.02 mM
Protocol: Rosetting experiments verified that the attached MHC molecules interacted functionally with T-cells. Drosophila S2 cells expressing L^d, L^d-coated SRBC were incubated with QL9 peptide (0.02 mM) or an irrelevant peptide (MCMV, 0.02 mM) for 30 minutes on ice; 2C+ T-cells were then added, the proportion being 10 2C+ T-cells for 1 Drosophila S2 cell, or 10 SRBC for 1 2C+ T-cell; the mixture was pelleted and kept on ice for at least 30 min. Cells were then carefully resuspended and rosettes were counted, a rosette being a Drosophila S2 cell bound to at least 3 2C+ T-cells, or a 2C+ T-cell bound to at least 3 SRBC. […] Typically, 30-40% of the lymphocytes were included in rosettes when QL9 peptide was added.
Rosetting experiments verified that the attached MHC molecules on latex beads interacted functionally with T-cells. Drosophila S2 cells expressing recombinant L^d and L^d-coated latex beads were incubated with QL9 peptide (0.02 mM) or an irrelevant peptide (MCMV, 0.02 mM) for 30 minutes on ice; 2C+ T-cells were then added, the proportion being 10 2C+ T-cells for 1 Drosophila S2 cell, or […]; the mixture was pelleted and kept on ice for at least 30 min. Cells were then carefully resuspended and rosettes were counted, a rosette being a Drosophila S2 cell bound to at least 3 2C+ T-cells, or a 2C+ T-cell bound to at least 3 latex beads. […]

CD8^+ 2C cells = assay: CD69 and CD25 expression on CD8+ 2C cells stimulated with transfected Drosophila cells plus peptide; conditions: Drosophila cells expressing L^d alone; peptide 10 μM, 12 hours
Protocol: TCR stimulation elicited a complex pattern of intracellular events which lead to early up-regulation of CD69 and CD25 (IL-2 receptor or IL-2R) on the cell surface. These changes are apparent within a few hours of stimulation and are followed by cytokine synthesis and cell proliferation. Drosophila cells were transfected with genes for L^d, L^d and B7.1 (L^d.B7), L^d and ICAM-1 (L^d.ICAM) or L^d, B7.1 and ICAM-1 (L^d.B7.1CAM). […] Purified CD8^+ 2C cells were incubated with various Drosophila cells plus a peptide (either p2Ca or QL9, 10 μM) in bulk (2 ml) culture for 12 hours and then stained for CD69 or CD25. Either p2Ca or QL9 presented by Drosophila cells transfected with L^d.B7, L^d.ICAM or L^d.B7.1CAM were effective in stimulating the up-regulation of CD69 and CD25.

normal B6 CD8^+ cells = assay: Proliferation of normal (nontransgenic) B6 CD8+ cells to peptide on L^d.B7.ICAM Drosophila APC; conditions: 10 μM peptide, L^d.B7.1CAM APC, 1×10^6 responder cells, no added cytokines
Protocol: The capacity of L^d.B7.1CAM Drosophila cells to induce a strong primary response of 2C TCR transgenic CD8^+ cells raised the question whether Drosophila cells could act as antigen-presenting cells for normal (nontransgenic) CD8^+ cells. Since the 2C mice were on a B6 (H-2b) background, the response of normal B6 CD8^+ cells was tested. Graded doses of CD8^+ cells from normal B6 mice were cultured with 10 μM QL9 peptide presented by L^d.B7.1CAM Drosophila antigen-presenting cells, i.e. a situation where a diverse repertoire of T-cells was exposed to only a single alloantigen (L^d+QL9) but at high concentration. As shown in FIG. 19 (left), presentation of QL9 by L^d.B7.1CAM antigen-presenting cells was indeed immunogenic for normal B6 CD8^+ cells and led to appreciable proliferative responses on Day 3 (80,000 cpm) with large doses of responder cells (1×10^6) in the absence of added cytokines; responses to an unrelated peptide, MCMV, were much lower (though significant) and no response occurred in the absence of peptide. As expected, the response of normal B6 CD8+cells to QL9 plus L^d.B7.1CAM antigen-presenting cells was substantially lower than with normal B10.D2 spleen cells as antigen-presenting cells (where the allostimulus was provided by a multiplicity of self peptides bound to L^d, K^d and D^d, but at low concentration) (FIG. 19, right. Note the difference in the Y axis scales).

2C+ T-cells [3] = assay: Enrichment of 2C+ T-cells from a 1/99 mixture with C57BL/6 CD8+ cells (1B2 staining, flow cytofluorometry)
Protocol: 2C+ T-cells were mixed with total CD8^+ cells from C57BL/6 mice at a 1/99 ratio and cells were cultured with immobilized L^d and anti-CD28 antibody in the presence of peptide QL9. IL-2 was added at day 2 of culture, and subsequently every other day. Cell activation and proliferation was noted, as evidenced by the formation of clumps, presence of enlarged cells that progressively spread in the well. At day 12 of culture, cells were harvested and percentage of cells expressing the 2C T-cell receptor was assessed by staining with the anticlonotypic antibody 1B2 and analysis by flow cytofluorometry: 43% of the cells cultured initially in the presence of peptide QL9 were 2C+, (FIG. 22) whereas 49% of the cells expressed 2C after stimulation with peptide p2Ca (FIG. 23), and 22% with peptide SL9 (FIG. 24). […] Enrichment was observed even with SL9, a peptide that makes a low affinity complex with the 2C T-cell receptor. This method thus can specifically activate and enrich a small subpopulation of antigen specific T-cells out of a heterogenous mixture of T-cells.

[4] = system: RMA.S cells (target cells) expressing L^d

Substance: Gln-Leu-Ser-Pro-Phe-Pro-Phe-Asp-Leu [QL9]
- Proliferation (Day 3) ^3HTdR incorporation, fly cells expressing L^d ([1]; APC L^d): 0.2 cpm × 10^3
- Proliferation (Day 3) ^3HTdR incorporation, fly cells expressing L^d + B7.1 ([1]; APC L^d + B7.1): 60.9 cpm × 10^3
- Proliferation (Day 3) ^3HTdR incorporation, fly cells expressing L^d + B7.1 + ICAM-1 ([1]; APC L^d + B7.1 + ICAM-1): 263.7 cpm × 10^3
- Proliferation (Day 3) ^3HTdR incorporation, fly cells expressing L^d + ICAM-1 ([1]; APC L^d + ICAM-1): 73.9 cpm × 10^3
- Proliferation (Day 3) ^3HTdR incorporation, L^d + B7.1 combined with L^d + ICAM-1 ([1]; mixture of two APC lines): 132.9 cpm × 10^3
- lymphocytes included in rosettes (2C+ T-cells [2]; Drosophila S2 cells expressing L^d or L^d-coated SRBC): 30-40%
- lymphocytes included in rosettes (2C+ T-cells [2]; Drosophila S2 cells expressing L^d or L^d-coated latex beads): 30-40%
- induction of CD69 and CD25 expression (CD8^+ 2C cells): low, but significant
- proliferative response on Day 3 (normal B6 CD8^+ cells): 80,000 cpm
- enrichment in specific T-cells after 12 days (2C+ T-cells [3]; start 1/99): 43 times
- cells expressing the 2C T-cell receptor (2C+) at day 12 (2C+ T-cells [3]; start 1/99 2C+/total CD8+, immobilized L^d and anti-CD28, IL-2 from day 2): 43%
- lysis of target cells in the presence of peptide [4]: observed
